The values below come from US20220389007A1, “INHIBITORS OF HUMAN IMMUNODEFICIENCY VIRUS REPLICATION” (VIIV HEALTHCARE UK (No. 5) LIMITED, priority 2019, published 2022).

One data set relates to recombinant NL4-3 virus. The experiment in a line: HIV cell culture assay (antiviral activity, luciferase readout). Type of data set: cell-based. To be noted: Human immunodeficiency virus 1, NL43, MT2, MT-2 cells infected for 4-5 days with recombinant NL4-3 virus carrying Renilla luciferase. The procedure: HIV cell culture assay—MT-2 cells, 293T cells and the proviral DNA clone of NL4-3 virus were obtained from the NIH AIDS Research and Reference Reagent Program. MT-2 cells were propagated in RPMI 1640 media supplemented with 10% heat inactivated fetal bovine serum (FBS), […]. The 293T cells were propagated in DMEM media supplemented with 10% heat inactivated FBS, […]. A recombinant NL4-3 proviral clone, in which a section of the nef gene was replaced with the Renilla luciferase gene, was used to make the reference virus used in these studies. The recombinant virus was prepared through transfection of the recombinant NL4-3 proviral clone into 293T cells using Transit-293 Transfection Reagent from Mirus Bio LLC (Madison, WI). Supernatent was harvested after 2-3 days and the amount of virus present was titered in MT-2 cells using luciferase enzyme activity as a marker by measuring luciferase enzyme activity. Luciferase was quantitated using the EnduRen Live Cell Substrate from Promega (Madison, Wis.). Antiviral activities of compounds toward the recombinant virus were quantified by measuring luciferase activity in MT-2 cells infected for 4-5 days with the recombinant virus in the presence of serial dilutions of the compound.
The 50% effective concentration (EC50) was calculated by using the exponential form of the median effect equation where (Fa)=1/[1+(ED50/drug conc.)m] (Johnson VA, Byington RT. Infectivity Assay. In Techniques in HIV Research. ed. Aldovini A, Walker BD. 71-76. New York: Stockton Press. 1990). The 50% inhibitory concentration (EC50) was calculated by using the exponential form of the median effect equation where percent inhibition=1/[1+(EC50/drug concentration)m], where m is a parameter that reflects the slope of the concentration-response curve.

Data set [1] can be described thus: Compound cytotoxicity, XTT-based colorimetric assay. The class given is cell-based. Conditions: human; uninfected MT2 cells, day 4, XTT assay. The procedure: Compound cytotoxicity and the corresponding CC50 values were determined using the same protocol as described in the antiviral assay except that uninfected cells were used. Cytotoxicity was assessed on day 4 in uninfected MT2 cells by using a XTT (2,3-bis[2-Methoxy-4-nitro-5-sulfophenyl]-2H-tetrazolium-5-carboxyanilide inner salt)-based colorimetric assay (Sigma-Aldrich, St Louis, Mo.).

In the case of `Cn1nc(NS(C)(=O)=O)c2c(Cl)ccc(-n3c([C@H](Cc4cc(F)cc(F)c4)NC(=O)Cn4nc(C(F)F)c5c4C(F)(F)[C@@H]4C[C@H]54)nc4nc(-c5cccc(OC(F)(F)F)c5)ccc4c3=O)c21` (atropisomer, axis not shown; (P)) [Example 21, N-((S)-1-((3P)-3-(4-chloro-1-methyl-3-(methylsulfonamido)-1H-indazol-7-yl)-4-oxo-7-(3-(trifluoromethoxy)phenyl)-3,4-dihydropyrido[2,3-d]pyrimidin-2-yl)-2-(3,5-difluorophenyl)ethyl)-2-((3bS,4aR)-3-(difluoromethyl)-5,5-difluoro-3b,4,4a,5-tetrahydro-1H-cyclopropa[3,4]cyclopenta[1,2-c]pyrazol-1-yl)acetamide], the EC50 in the data set with recombinant NL4-3 virus came out at 0.39 nM. Besides, the CC50 at 4 day in data set [1] is greater than 100 nM.

Turning to `Cn1nc(NS(C)(=O)=O)c2c(Cl)ccc(-n3c([C@H](Cc4cc(F)cc(F)c4)NC(=O)Cn4nc(C(F)F)c5c4C(F)(F)[C@@H]4C[C@H]54)nc4nc(-c5ccc(F)cc5C(F)(F)F)ccc4c3=O)c21` (atropisomer, axis not shown; (P)) [Example 22, N-((S)-1-((3P)-3-(4-chloro-1-methyl-3-(methylsulfonamido)-1H-indazol-7-yl)-7-(4-fluoro-2-(trifluoromethyl)phenyl)-4-oxo-3,4-dihydropyrido[2,3-d]pyrimidin-2-yl)-2-(3,5-difluorophenyl)ethyl)-2-((3bS,4aR)-3-(difluoromethyl)-5,5-difluoro-3b,4,4a,5-tetrahydro-1H-cyclopropa[3,4]cyclopenta[1,2-c]pyrazol-1-yl)acetamide], the concentration for a half-maximal effect (EC50) in the data set with recombinant NL4-3 virus amounted to 0.052 nM. The compound also had a CC50 at 4 day in data set [1] greater than 100 nM.

Regarding `Cn1nc(NS(C)(=O)=O)c2c(Cl)ccc(-n3c([C@H](Cc4cc(F)cc(F)c4)NC(=O)Cn4nc(C(F)F)c5c4C(F)(F)[C@@H]4C[C@H]54)nc4nc(-c5cccc(C(F)F)c5)ccc4c3=O)c21` (atropisomer, axis not shown; (P)) [Example 23, N-((S)-1-((3P)-3-(4-chloro-1-methyl-3-(methylsulfonamido)-1H-indazol-7-yl)-7-(3-(difluoromethyl)phenyl)-4-oxo-3,4-dihydropyrido[2,3-d]pyrimidin-2-yl)-2-(3,5-difluorophenyl)ethyl)-2-((3bS,4aR)-3-(difluoromethyl)-5,5-difluoro-3b,4,4a,5-tetrahydro-1H-cyclopropa[3,4]cyclopenta[1,2-c]pyrazol-1-yl)acetamide], in the data set on recombinant NL4-3 virus, the EC50 amounted to 0.11 nM. In addition, the CC50 at 4 day in data set [1] was greater than 100 nM.

Regarding `Cn1nc(NS(C)(=O)=O)c2c(Cl)ccc(-n3c([C@H](Cc4cc(F)cc(F)c4)NC(=O)Cn4nc(C(F)F)c5c4C(F)(F)[C@@H]4C[C@H]54)nc4nc(-c5cccc(C(F)(F)F)c5)ccc4c3=O)c21` (atropisomer, axis not shown; (P)) [Example 24, N-((S)-1-((3P)-3-(4-chloro-1-methyl-3-(methylsulfonamido)-1H-indazol-7-yl)-4-oxo-7-(3-(trifluoromethyl)phenyl)-3,4-dihydropyrido[2,3-d]pyrimidin-2-yl)-2-(3,5-difluorophenyl)ethyl)-2-((3bS,4aR)-3-(difluoromethyl)-5,5-difluoro-3b,4,4a,5-tetrahydro-1H-cyclopropa[3,4]cyclopenta[1,2-c]pyrazol-1-yl)acetamide], in the data set with recombinant NL4-3 virus, the concentration for a half-maximal effect (EC50) is 0.16 nM. Further, the CC50 at 4 day in data set [1] was greater than 100 nM.

Turning to `Cn1nc(NS(C)(=O)=O)c2c(Cl)ccc(-n3c([C@H](Cc4cc(F)cc(F)c4)NC(=O)Cn4nc(C(F)F)c5c4C(F)(F)[C@@H]4C[C@H]54)nc4nc(-c5ccccc5C(F)(F)F)ccc4c3=O)c21` (atropisomer, axis not shown; (P)) [Example 25, N-((S)-1-((3P)-3-(4-chloro-1-methyl-3-(methylsulfonamido)-1H-indazol-7-yl)-4-oxo-7-(2-(trifluoromethyl)phenyl)-3,4-dihydropyrido[2,3-d]pyrimidin-2-yl)-2-(3,5-difluorophenyl)ethyl)-2-((3bS,4aR)-3-(difluoromethyl)-5,5-difluoro-3b,4,4a,5-tetrahydro-1H-cyclopropa[3,4]cyclopenta[1,2-c]pyrazol-1-yl)acetamide], the EC50 with recombinant NL4-3 virus was 0.06 nM. The compound further registered a cytotoxic concentration (CC50) at 4 day in data set [1] greater than 100 nM.

For `Cn1nc(NS(C)(=O)=O)c2c(Cl)ccc(-n3c([C@H](Cc4cc(F)cc(F)c4)NC(=O)Cn4nc(C(F)F)c5c4C(F)(F)[C@@H]4C[C@H]54)nc4nc(-c5ccc(OC(F)(F)F)cc5)ccc4c3=O)c21` (atropisomer, axis not shown; (P)) [Example 26, N-((S)-1-((3P)-3-(4-chloro-1-methyl-3-(methylsulfonamido)-1H-indazol-7-yl)-4-oxo-7-(4-(trifluoromethoxy)phenyl)-3,4-dihydropyrido[2,3-d]pyrimidin-2-yl)-2-(3,5-difluorophenyl)ethyl)-2-((3bS,4aR)-3-(difluoromethyl)-5,5-difluoro-3b,4,4a,5-tetrahydro-1H-cyclopropa[3,4]cyclopenta[1,2-c]pyrazol-1-yl)acetamide], the EC50 with recombinant NL4-3 virus was found to be 0.51 nM. Also, the 50% cytotoxic concentration (CC50) at 4 day in data set [1] was greater than 100 nM.

`Cn1nc(NS(C)(=O)=O)c2c(Cl)ccc(-n3c([C@H](Cc4cc(F)cc(F)c4)NC(=O)Cn4nc(C(F)F)c5c4C(F)(F)[C@@H]4C[C@H]54)nc4nc(-c5ccc(OC(F)F)cc5)ccc4c3=O)c21` (atropisomer, axis not shown; (P)) [Example 27, N-((S)-1-((3P)-3-(4-chloro-1-methyl-3-(methylsulfonamido)-1H-indazol-7-yl)-7-(4-(difluoromethoxy)phenyl)-4-oxo-3,4-dihydropyrido[2,3-d]pyrimidin-2-yl)-2-(3,5-difluorophenyl)ethyl)-2-((3bS,4aR)-3-(difluoromethyl)-5,5-difluoro-3b,4,4a,5-tetrahydro-1H-cyclopropa[3,4]cyclopenta[1,2-c]pyrazol-1-yl)acetamide]: the EC50 in the data set with recombinant NL4-3 virus amounted to 0.34 nM. In data set [1], this compound had a CC50 at 4 day greater than 100 nM.

Consider `Cn1nc(NS(C)(=O)=O)c2c(Cl)ccc(-n3c([C@H](Cc4cc(F)cc(F)c4)NC(=O)Cn4nc(C(F)F)c5c4C(F)(F)[C@@H]4C[C@H]54)nc4nc(-c5ccncn5)ccc4c3=O)c21` (atropisomer, axis not shown; (P)) [Example 28, N-((S)-1-((3P)-3-(4-chloro-1-methyl-3-(methylsulfonamido)-1H-indazol-7-yl)-4-oxo-7-(pyrimidin-4-yl)-3,4-dihydropyrido[2,3-d]pyrimidin-2-yl)-2-(3,5-difluorophenyl)ethyl)-2-((3bS,4aR)-3-(difluoromethyl)-5,5-difluoro-3b,4,4a,5-tetrahydro-1H-cyclopropa[3,4]cyclopenta[1,2-c]pyrazol-1-yl)acetamide], for which, in the data set on recombinant NL4-3 virus, the EC50 came out at 0.04 nM. The CC50 at 4 day in data set [1] was greater than 100 nM.

Consider `Cn1nc(NS(C)(=O)=O)c2c(Cl)ccc(-n3c([C@H](Cc4cc(F)cc(F)c4)NC(=O)Cn4nc(C(F)F)c5c4C(F)(F)[C@@H]4C[C@H]54)nc4nc(-c5cncc(Cl)c5)ccc4c3=O)c21` (atropisomer, axis not shown; (P)) [Example 29, N-((S)-1-((3P)-3-(4-chloro-1-methyl-3-(methylsulfonamido)-1H-indazol-7-yl)-7-(5-chloropyridin-3-yl)-4-oxo-3,4-dihydropyrido[2,3-d]pyrimidin-2-yl)-2-(3,5-difluorophenyl)ethyl)-2-((3bS,4aR)-3-(difluoromethyl)-5,5-difluoro-3b,4,4a,5-tetrahydro-1H-cyclopropa[3,4]cyclopenta[1,2-c]pyrazol-1-yl)acetamide], for which, in the data set on recombinant NL4-3 virus, the 50% effective concentration (EC50) came to 0.057 nM. In data set [1], the half-maximal cytotoxic concentration (CC50) at 4 day was greater than 100 nM.

One may read the EC50 as the concentration giving half of the maximal effect. In general, CC50 refers to the concentration giving 50% cytotoxicity. A lower CC50 goes with greater toxicity to the cells.
